Measurements taken from BigSolDB 2.1.

CCCCCCOC(=O)NC(=N)c1ccc(NCc2nc3cc(C(=O)N(CCC(=O)OCC)c4ccccn4)ccc3n2C)cc1.CS(=O)(=O)O
solubility (mole fraction)
Conditions	287.37 K	292.2 K	297.95 K	303.97 K	308.88 K	313.59 K	318.4 K	323.39 K
in DMAc	0.0228	0.0241	0.0264	0.0285	0.0311	0.0338	0.0372	0.0403
in DMF	0.0217	0.0229	0.0246	0.0269	0.0294	0.0318	0.035	0.0385
in ethanol	0.00092	0.00116	0.00153	0.00208	0.00267	0.00343	0.00458	0.00626
in ethylene glycol	0.00425	0.00524	0.00619	0.00786	0.00961	0.0112	0.0143	0.0179
in methanol	0.0158	0.018	0.0224	0.0274	0.0333	0.0389	0.0471	0.055
